Measurements reported in patent publication US10865391B2, “Glutamate dehydrogenase mutants and their application in preparation of L-phosphinothricin” (ZHEJIANG UNIVERSITY, priority 2018, dated 2020).

How the values were obtained:
Type in all cases: biochemical, Pseudomonas putida
wild type PpGluDH = test: Catalytic activity toward other keto acid substrates by spectrophotometry, wild type; settings: keto acid as substrate
PpGluDH-V378A = test: Catalytic activity toward other keto acid substrates by spectrophotometry, V378A mutant; settings: keto acid as substrate; for Specific activity (U/mg) V378A: PpGluDH-V378A; for Catalytic activity of PpGluDH-V378A compared with the wild type: result in words
PpGluDH-A167G = test: Catalytic activity toward other keto acid substrates by spectrophotometry, A167G mutant; settings: keto acid as substrate; for Specific activity (U/mg) A167G: PpGluDH-A167G; for Catalytic activity of PpGluDH-A167G compared with the wild type: result in words

Compound	Specific activity (U/mg) Wild (wild type PpGluDH) [U/mg]	Specific activity (U/mg) V378A (PpGluDH-V378A) [U/mg]	Specific activity (U/mg) A167G (PpGluDH-A167G) [U/mg]	Catalytic activity of PpGluDH-V378A compared with the wild type (PpGluDH-V378A)	Catalytic activity of PpGluDH-A167G compared with the wild type (PpGluDH-A167G)
CCC(C)C(=O)C(=O)O (stereo not drawn) [7a, 3-Methyl-2-Oxovaleric acid]	0.07	0.03	<0.01	–	–
O=C(O)C(=O)Cc1ccccc1 [11a, Phenylpyruvic acid]	<0.01	<0.01	<0.01	–	–
O=C(O)C(=O)c1ccccc1 [10a, Phenylglyoxylic acid]	0.04	0.01	0.01	–	–
CCC(=O)C(=O)O [3a, 2-Ketobutyric acid]	4.93	0.34	0.09	–	–
CCCCC(=O)C(=O)O [9a, 2-Ketohexanoic acid]	0.71	1.49	1.23	improved catalytic activity	improved catalytic activity
CCCC(=O)C(=O)O [6a, 2-Oxovaleric acid]	6.39	2.37	1.21	–	–
O=C(O)CCC(=O)C(=O)O [1a, 2-Ketoglutaric acid]	189.05	268.48	314.41	improved catalytic activity	improved catalytic activity
O=C(O)C(=O)CCc1ccccc1 [12a, 2-Oxo-4-phenylbutyric acid]	0.08	0.04	0.33	decreased	improved to some extent
O=C(O)C(=O)Cc1ccc(O)cc1 [13a, 4-hydroxyphenylpyruvic acid]	0.02	<0.01	<0.01	–	–
CC(C)C(=O)C(=O)O [4a, 3-Methyl-2-oxobutanoic acid]	0.37	0.04	<0.01	–	–
CC(C)CC(=O)C(=O)O [8a, 4-Methyl-2-Oxovaleric acid]	0.05	0.03	0.01	–	–
CC(=O)C(=O)O [2a, Pyruvic acid]	0.15	0.01	<0.01	–	–
